# Results from patent publication US10519143B2, “Substituted-indole-compounds as estrogen receptor down-regulators” (LUOXIN PHARMACEUTICAL (SHANGHAI) CO., LTD, priority 2016, dated 2019).
# Tested on: MCF-7 cells
# Assay: MCF-7 cell proliferation inhibition assay
# Assay type: cell-based
# Settings: Homo sapiens, MCF7, 144 h, read-out: anti-proliferation in MCF-7 cells (nM)
# Protocol: Experimental Reagent: RPMI 1640 medium, fetal bovine serum, Promega CellTiter-Glo reagent. The cell line MCF-7 was purchased from The European Collection of Authenticated Cell Cultures (ECACC). Envision Multilabel Reader (PerkinElmer). Experimental Method: […] The cell plate was placed in a carbon dioxide incubator overnight. […] The cell plate was incubated in a carbon dioxide incubator for 6 days. Promega CellTiter-Glo reagent was added to the cell plate at 25 μL per well, cells were incubated for 10 minutes at room temperature to stabilize the luminescence signal, which was measured using PerkinElmer Envision Multilabel Reader. Data Analysis: […] (Model 205 in XLFIT5, iDBS)
row,SMILES,IC50 [nM]
1,CC/C(=C(/c1ccc(/C=C/C(=O)O)cc1)c1cc2ccccc2[nH]1)c1cc(Cl)sc1Cl [Compound I-17],8.29
2,CC/C(=C(/c1ccc(/C=C/C(=O)O)cc1)c1cc2ccccc2[nH]1)c1ccsc1C#N [Compound I-18],22
3,CC/C(=C(/c1ccc(/C=C/C(=O)O)cc1)c1cc2ccccc2[nH]1)c1c(C)cccc1Cl [Compound I-29],30
4,CC/C(=C(/c1ccc(/C=C/C(=O)O)cc1)c1cc2ccccc2[nH]1)c1ccc(F)cc1F [Compound I-45],103
5,CC/C(=C(\c1cc2ccccc2[nH]1)c1c(F)cc(/C=C/C(=O)O)cc1F)c1ccc(F)cc1Cl [Compound I-57],32
6,CC/C(=C(/c1ccc(OCCN2CC(CF)C2)cc1)c1cc2ccccc2[nH]1)c1ccc(F)cc1Cl [II-1],4.57

# Same assay, conditions: Homo sapiens, MCF7, 144 h; MCF-7 cells, 6 days incubation, CellTiter-Glo; read-out: anti-proliferation in MCF-7 cells
row,SMILES,IC50 [nM]
1,CC/C(=C(/c1ccc(/C=C/C(=O)O)cc1)c1cc2ccccc2[nH]1)c1cccc(OC(F)(F)F)c1 [Compound I-2],282
2,CC/C(=C(/c1ccc(/C=C/C(=O)O)cc1)c1cc2ccccc2[nH]1)c1ccccc1OC(F)(F)F [Compound I-3],206
3,CC/C(=C(/c1ccc(/C=C/C(=O)O)cc1)c1cc2ccccc2[nH]1)c1cccc(C(F)(F)F)c1 [Compound I-4],325
4,CC/C(=C(/c1ccc(/C=C/C(=O)O)cc1)c1cc2ccccc2[nH]1)c1ccccc1C(F)(F)F [Compound I-5],8.04
5,CC/C(=C(/c1ccc(/C=C/C(=O)O)cc1)c1cc2ccccc2[nH]1)c1cccs1 [Compound I-6],321
6,CC/C(=C(/c1ccc(/C=C/C(=O)O)cc1)c1[nH]c2ccccc2c1Br)c1ccc(F)cc1Cl [Compound I-7],9.52
7,CC/C(=C(/c1ccc(/C=C/C(=O)O)cc1)c1[nH]c2ccccc2c1Cl)c1ccc(F)cc1Cl [Compound I-8],5.59
8,CC/C(=C(/c1ccc(/C=C/C(=O)O)cc1)c1cc2ccc(F)cc2[nH]1)c1ccc(F)cc1Cl [Compound I-9],167
9,CC/C(=C(/c1ccc(/C=C/C(=O)O)cc1)c1[nH]c2ccccc2c1Cl)c1ccccc1C(F)(F)F [Compound I-10],13
10,CC/C(=C(/c1ccc(/C=C/C(=O)O)cc1)c1[nH]c2ccccc2c1Br)c1ccccc1C(F)(F)F [Compound I-11],8.53
11,CC/C(=C(/c1ccc(/C=C/C(=O)O)cc1)c1cc2ccccc2[nH]1)c1ccc(F)cc1C(F)(F)F [Compound I-12],13
12,CC/C(=C(/c1ccc(/C=C/C(=O)O)cc1)c1cc2ccccc2[nH]1)c1ccc(C(F)(F)F)cc1Cl [Compound I-13],27
13,CC/C(=C(/c1ccc(/C=C/C(=O)O)cc1)c1cc2ccccc2[nH]1)c1ccc(Cl)cc1C(F)(F)F [Compound I-14],4.11
14,CC/C(=C(/c1ccc(/C=C/C(=O)O)cc1)c1[nH]c2ccccc2c1Cl)c1ccsc1C#N [Compound I-15],7.56
15,CC/C(=C(/c1ccc(/C=C/C(=O)O)cc1)c1[nH]c2ccccc2c1C)c1ccc(F)cc1Cl [Compound I-19],4.78
16,CC/C(=C(/c1ccc(/C=C/C(=O)O)cc1)c1cc2ccccc2[nH]1)c1ccc(Cl)cc1C#N [Compound I-21],14
17,CC/C(=C(/c1ccc(/C=C/C(=O)O)cc1)c1[nH]c2ccccc2c1Cl)c1ccc(Cl)cc1C#N [Compound I-22],0.86
18,CC/C(=C(/c1ccc(/C=C/C(=O)O)cc1)c1[nH]c2ccccc2c1C#N)c1ccc(F)cc1Cl [Compound I-23],4.84
19,CC/C(=C(/c1ccc(/C=C/C(=O)O)cc1)c1[nH]c2ccccc2c1Cl)c1ccc(Cl)cc1 [Compound I-24],21.5

row,SMILES,IC50 [nM]
1,CC(C)C/C(=C(/c1ccc(/C=C/C(=O)O)cc1)c1cc2ccccc2[nH]1)c1ccc(F)cc1Cl [Compound I-27],8.36
2,CC/C(=C(/c1ccc(/C=C/C(=O)O)cc1)c1[nH]c2ccccc2c1Cl)c1ccc(Cl)c(C)c1 [Compound I-28],69
3,CC/C(=C(/c1ccc(/C=C/C(=O)O)cc1)c1cc2ccccc2[nH]1)c1ccc2c(c1)OCCO2 [Compound I-30],48
4,CC/C(=C(/c1ccc(/C=C/C(=O)O)cc1)c1[nH]c2ccccc2c1Cl)c1ccc2c(c1)OCCO2 [Compound I-31],3.66
5,CC/C(=C(/c1ccc(/C=C/C(=O)O)cc1)c1cc2ccccc2[nH]1)c1ccc(OC)cc1 [Compound I-32],61
6,CC/C(=C(/c1ccc(/C=C/C(=O)O)cc1)c1[nH]c2ccccc2c1Cl)c1ccc(OC)cc1 [Compound I-33],2.86
7,CC/C(=C(/c1ccc(/C=C/C(=O)O)cc1)c1cc2ccccc2[nH]1)c1ccc(C#N)cc1Cl [Compound I-34],49
8,CC/C(=C(/c1ccc(/C=C/C(=O)O)cc1)c1[nH]c2ccccc2c1Cl)c1cc(Cl)sc1Cl [Compound I-35],20
9,CC/C(=C(/c1ccc(/C=C/C(=O)O)cc1)c1[nH]c2ccccc2c1C#N)c1cc(Cl)sc1Cl [Compound I-36],6.84
10,CC/C(=C(/c1ccc(/C=C/C(=O)O)cc1)c1cc2ccccc2[nH]1)c1ccc(Cl)cc1Cl [Compound I-37],11
11,CC/C(=C(/c1ccc(/C=C/C(=O)O)cc1)c1[nH]c2ccccc2c1F)c1ccc(F)cc1Cl [Compound I-40],2.31
12,CC/C(=C(/c1ccc(/C=C/C(=O)O)cc1)c1cc2ccccc2[nH]1)c1ccc(OC)cc1Cl [Compound I-41],3.91
13,CC/C(=C(/c1ccc(/C=C/C(=O)O)cc1)c1[nH]c2ccccc2c1C#N)c1ccc(OC)cc1Cl [Compound I-42],0.77
14,CC/C(=C(/c1ccc(/C=C/C(=O)O)cc1)c1[nH]c2ccccc2c1Cl)c1ccc(OC)cc1C#N [Compound I-43],1.56
15,CC/C(=C(/c1ccc(/C=C/C(=O)O)cc1)c1[nH]c2ccccc2c1Cl)c1ccc(Cl)cc1C(F)(F)F [Compound I-44],5.84
16,CC/C(=C(/c1ccc(/C=C/C(=O)O)cc1)c1cc2cnccc2[nH]1)c1ccc(F)cc1Cl [Compound I-46],393
17,CC/C(=C(/c1ccc(/C=C/C(N)=O)cc1)c1cc2ccccc2[nH]1)c1ccc(Cl)cc1C(F)(F)F [Compound I-47],4.27
18,CC/C(=C(/c1ccc(/C=C/C(=O)NS(C)(=O)=O)cc1)c1cc2ccccc2[nH]1)c1ccc(Cl)cc1C(F)(F)F [Compound I-48],4.88
19,CC/C(=C(/c1ccc(/C=C/C(=O)O)cc1)c1cc2ccccc2[nH]1)c1ccccc1C#N [Compound I-49],42

row,SMILES,IC50 [nM]
1,CC/C(=C(/c1ccc(/C=C/C(=O)O)cc1)c1cc2ccccc2[nH]1)c1ccccc1C [Compound I-50],33
2,CC/C(=C(/c1ccc(/C=C/C(=O)O)cc1)c1cc2ccccc2[nH]1)c1ccccc1Cl [Compound I-51],9.24
3,CC/C(=C(/c1ccc(/C=C/C(=O)O)cc1)c1cc2ccccc2[nH]1)c1cccc(F)c1C#N [Compound I-52],40
4,CC/C(=C(/c1ccc(/C=C/C(=O)O)cc1)c1[nH]c2ccccc2c1C#N)c1ccc(Cl)cc1Cl [Compound I-53],4.35
5,CC/C(=C(/c1ccc(/C=C/C(=O)O)cc1)c1[nH]c2ccccc2c1C)c1cccc(C)c1 [Compound I-54],23
6,CC/C(=C(/c1ccc(/C=C/C(=O)O)cc1)c1[nH]c2ccccc2c1Cl)c1ccc(Cl)nc1C#N [Compound I-55],2.42
7,CC/C(=C(/c1ccc(/C=C/C(=O)O)cc1)c1[nH]c2ccccc2c1Cl)c1csc(C)c1 [Compound I-56],35
8,CC/C(=C(/c1ccc(OCCN2CC(CF)C2)cc1)c1cc2ccc(F)cc2[nH]1)c1ccc(F)cc1Cl [II-2],7.75
9,CC/C(=C(/c1ccc(OCCN2CC(CF)C2)cc1)c1cc2cc(F)ccc2[nH]1)c1ccc(F)cc1Cl [II-3],6.77
10,CC/C(=C(\c1cc2ccccc2[nH]1)c1c(F)cc(OCCN2CC(CF)C2)cc1F)c1ccc(F)cc1Cl [II-4],6.86
11,CC/C(=C(/c1ccc(OCCN2CC(CF)C2)cc1)c1[nH]c2ccccc2c1Cl)c1ccc(F)cc1Cl [II-5],7.23
12,CC/C(=C(/c1ccc(OCCN2CC(CF)C2)cc1)c1cc2ccccc2[nH]1)c1ccccc1Cl [II-6],2.46
13,CC/C(=C(/c1ccc(OCCN2CC(CF)C2)cc1)c1cc2ccccc2[nH]1)c1ccccc1C#N [II-7],2.61
14,CC/C(=C(/c1ccc(OCCN2CC(CC#N)C2)cc1)c1[nH]c2ccccc2c1Cl)c1ccc(F)cc1Cl [II-8],5
15,CC/C(=C(/c1ccc(OCCN2CC(CC#N)C2)cc1)c1cc2ccccc2[nH]1)c1ccc(Cl)cc1C(F)(F)F [II-9],51
16,CC/C(=C(/c1ccc(OCCN2CC(CC#N)C2)cc1)c1cc2ccccc2[nH]1)c1ccccc1Cl [II-10],3.92
17,CC/C(=C(/c1ccc(OCCN2CC(CC#N)C2)cc1)c1cc2ccccc2[nH]1)c1ccccc1C#N [II-11],7.43
18,CC/C(=C(/c1ccc(OCCN2CC(CC#N)C2)cc1)c1[nH]c2ccccc2c1Cl)c1ccc(Cl)cc1C#N [II-12],1.56
